Measurements: publication PMC6271425, “Synthesis and Sar Study of Diarylpentanoid Analogues as New Anti-Inflammatory Agents” (Molecules, 2014)
Where two headings read alike, the source gives them in different places.

Assays:
Format in all cases: cell-based, murine
[1] = system: RAW 264.7 cells; assay: Cell cytotoxicity determination (MTT assay); settings: read-out: Cytotoxicity IC50 (µM) ± S.E.M
Experimental: (§1) The synthesized compounds were screened for NO suppression activity in IFN-γ/LPS-stimulated RAW 264.7 macrophages at a 50 µM test concentration. […] The IC50 values of the fifty-seven bioactive compounds were determined and compared to that of the positive control, curcumin. An MTT assay was also carried out to confirm that NO inhibition was not due to cytotoxicity. […] The complete bioassay results of all the compounds are provided as Table S2 in Supplementary Data.
(§2) RAW 264.7 murine macrophages cells obtained from American Type Culture Collection (ATCC, Rockville, MD, USA) were grown in Dulbecco’s Modified Eagle’s Medium (DMEM) containing 10% fetal bovine serum (FBS) and 1% penicillin/streptomycin in a 95% air and 5% CO2 atmosphere at 37 °C.
(§3) Supernatant in each well was removed followed by addition of 100 µL DMEM. Subsequently, 20 µL of 3-(4,5-dimethylthiazol-2-yl)-2,5-diphenyltetrazolium bromide (MTT, 5 mg/mL) was then added and the plate was incubated in a 95% air and 5% CO2 atmosphere at 37 °C for 4 h. The mixture of culture media and MTT in all wells were removed and the purplish formazan crystals formed were dissolved in dimethyl sulfoxide (DMSO) and further incubated for 15 min at room temperature. The color intensity was then measured at 570 nm at room temperature.

[2] = Cell cytotoxicity determination (MTT assay); settings: mouse, RAW 264.7 macrophage cells, RAW 264.7 cells, read-out: Cytotoxicity IC50 (µM) ± S.E.M
Experimental: as §1, §2, §3

[3] = system: NO production in IFN-γ/LPS-stimulated RAW 264.7 macrophages; assay: NO suppression (Griess nitrite determination) in IFN-γ/LPS-stimulated RAW 264.7 macrophages; settings: for inhibition at 50 µM: RAW264.7, 50 µM test concentration, read-out: NO Inhibition at 50 µM (%) ± S.E.M; for NO Inhibition at 50 µM (%) ± S.E.M: 50 µM test concentration
Experimental: The synthesized compounds were screened for NO suppression activity in IFN-γ/LPS-stimulated RAW 264.7 macrophages at a 50 µM test concentration. […] The IC50 values of the fifty-seven bioactive compounds were determined and compared to that of the positive control, curcumin. An MTT assay was also carried out to confirm that NO inhibition was not due to cytotoxicity. […] The complete bioassay results of all the compounds are provided as Table S2 in Supplementary Data. RAW 264.7 murine macrophages cells obtained from American Type Culture Collection (ATCC, Rockville, MD, USA) were grown in Dulbecco’s Modified Eagle’s Medium (DMEM) containing 10% fetal bovine serum (FBS) and 1% penicillin/streptomycin in a 95% air and 5% CO2 atmosphere at 37 °C. RAW 264.7 cells at 90%–95% confluency were detached and seeded (50,000 cells/well) into a 96-well culture plate with 50 μL of DMEM and incubated for 24 h. The cells were then stimulated in […] of LPS (Escherichia coli, serotype 0111:B4) and 1 ng/ml of interferon-gamma (IFN-γ) in the presence or absence of test compounds for 17 h. Nitrite concentration was then determined by Griess assay by reacting 50 μL of cell culture supernatant with 50 μL of Griess reagent (1% sulfanilamide and 0.1% N-(1-naphthyl)ethylenediamine dihydrochloride in 2.5% phosphoric acid) at room temperature. The optical density was measured at 550 nm after 5 min of incubation at room temperature with a microplate reader.

[4] = Mus musculus, IFN-γ/LPS-stimulated RAW 264.7 cells
[5] = Mus musculus, RAW264.7, IFN-γ/LPS-stimulated RAW 264.7 cells, read-out: NO Inhibition IC50 (µM) ± S.E.M
[6] = Mus musculus, RAW264.7, Table 6, NO suppression IC50 used for QSAR, unit inferred, read-out: IC50
[7] = Mus musculus, RAW264.7, −log IC50 of NO suppression, read-out: pIC50 (converted)
[8] = IFN-γ/LPS-stimulated RAW 264.7 cells
[9] = IFN-γ/LPS-stimulated RAW 264.7 cells, read-out: NO Inhibition IC50 (µM) ± S.E.M

IC50 [3, 5] [µM] | IC50 [3, 6] [µM] | IC50 [3, 7] [µM] | IC50 [3, 9] [µM] | Compound | IC50 [1] [µM] | IC50 [2] [µM] | inhibition at 50 µM [3, 4] [%] | NO Inhibition at 50 µM (%) ± S.E.M [3, 8] [%]
36.4 ± 1.8 | 36.4 ± 1.8 | 36.3 |  | O=C(/C=C(O)/C=C/c1ccc(Cl)s1)c1ccccc1O [Compound 17] | 67.9 ± 2.9 | 67.8 ± 2.87 | 63.8 ± 2.6 | 
39 ± 1.24 | 39 ± 1.2 | 38.9 |  | COc1ccc(C(=O)/C=C(O)/C=C/c2ccccc2OC)c(O)c1 [Compound 48] | 88.6 ± 2.5 | 88.5 ± 2.54 | 66.3 ± 6.75 | 66.3 ± 6.8
29.3 ± 0.306 | 29.3 ± 0.3 | 29.5 |  | COc1ccc(C(=O)/C=C(O)/C=C/c2cc(OC)c(OC)c(OC)c2)c(O)c1 [Compound 52] |  | > 100 | 96.39 ± 0.37 | 96.4 ± 0.4
25.9 ± 0.325 | 25.9 ± 0.3 | 25.7 |  | COc1ccc(O)c(C(=O)/C=C(O)/C=C/c2ccccc2)c1 [Compound 58] |  | > 100 | 92.8 ± 1.8 | 92.8 ± 1.8
35.7 ± 0.789 | 35.7 ± 0.8 | 35.5 |  | COc1ccc(O)c(C(=O)/C=C(O)/C=C/c2cccc(Cl)c2)c1 [Compound 59] |  | > 100 | 89.1 ± 3.56 | 89.1 ± 3.6
27.41 ± 0.207 | 27.4 ± 0.2 | 27.5 |  | COc1ccc(O)c(C(=O)/C=C(O)/C=C/c2ccccc2OC)c1 [Compound 61] |  | > 100 | 65.8 ± 2.37 | 65.8 ± 2.4
35.06 ± 0.165 | 35.1 ± 0.2 | 34.7 |  | COc1cccc(/C=C/C(O)=C/C(=O)c2cc(OC)ccc2O)c1 [Compound 62] |  | > 100 | 92.6 ± 1.18 | 92.6 ± 1.2
19.8 ± 0.365 | 19.8 ± 0.4 | 20 | < 20 | COc1ccc(O)c(C(=O)/C=C(O)/C=C/c2ccc(OC)c(OC)c2)c1 [Compound 63] |  | > 100 | 92.19 ± 0.77 | 92.2 ± 0.8
18.4 ± 0.246 | 18.4 ± 0.2 | 18.2 | < 20 | COc1ccc(O)c(C(=O)/C=C(O)/C=C/c2cc(OC)c(OC)c(OC)c2)c1 [Compound 64] |  | > 100 | 95.2 ± 1.09 | 95.2 ± 1.1
71.5 ± 2.5 | 71.5 ± 2.5 | 70.8 |  | COc1ccc(O)c(C(=O)/C=C(O)/C=C/c2ccco2)c1 [Compound 67] |  | > 100 | 72.1 ± 3.07 | 72.1 ± 3.1
33.4 ± 0.695 | 33.4 ± 0.7 | 33.1 |  | COc1ccc(/C=C/C(O)=C/C(=O)c2cc(OC)ccc2O)c(OC)c1 [Compound 68] |  | > 100 | 79.5 ± 4.71 | 79.5 ± 4.7
35.6 ± 0.621 | 35.6 ± 0.6 | 35.5 |  | COc1ccc(O)c(C(=O)/C=C(O)/C=C/c2cccs2)c1 [Compound 71] |  | > 100 | 85 ± 2.66 | 85.0 ± 2.7
28.9 ± 1.5 | 28.9 ± 1.5 | 28.8 |  | O=C(/C=C(O)/C=C/c1ccccc1O)c1ccccc1O [Compound 79] | 56.4 ± 1.2 | 72.6 ± 2.61 | 95.46 ± 0.59 | 95.5 ± 0.6
30.8 ± 0.722 | 30.8 ± 0.7 | 30.9 |  | O=C(/C=C(O)/C=C/c1cccc(O)c1)c1ccccc1O [Compound 80] | 67.3 ± 0.6 | 85 ± 1.44 | 97.22 ± 0.69 | 97.2 ± 0.7
19.1 ± 0.644 | 19.1 ± 0.6 | 19.1 | < 20 | O=C(/C=C(O)/C=C/c1ccc(O)cc1)c1ccccc1O [Compound 81] | > 100 | 94.13 ± 0.917 | 91.5 ± 3.86 | 91.5 ± 3.9
15.9 ± 0.947 | 15.9 ± 0.9 | 15.8 | < 20 | O=C(/C=C(O)/C=C/c1ccccc1O)c1cc(Cl)ccc1O [Compound 84] | 53.1 ± 1 | 40.9 ± 1.63 | 95.2 ± 0.9 | 
26.9 ± 0.796 | 26.9 ± 0.8 | 26.9 |  | O=C(/C=C(O)/C=C/c1cccc(O)c1)c1cc(Cl)ccc1O [Compound 85] | 89.1 ± 1.1 | 53.1 ± 0.973 | 95.86 ± 0.45 | 95.9 ± 0.5
18.7 ± 0.786 | 18.7 ± 0.8 | 18.6 | < 20 | O=C(/C=C(O)/C=C/c1ccc(O)cc1)c1cc(Cl)ccc1O [Compound 86] | 66 ± 1.2 | 89.1 ± 1.08 | 90.3 ± 2.66 | 90.3 ± 2.7
32.3 ± 0.865 | 32.3 ± 0.9 | 32.4 |  | O=C(/C=C(O)/C=C/c1cc(O)ccc1O)c1cc(Cl)ccc1O [Compound 87] | 49.5 ± 1.7 | 66 ± 1.21 | 96.5 ± 1.42 | 96.5 ± 1.4
31 ± 2 |  | 30.9 |  | O=C(/C=C(O)/C=C/c1ccccc1O)c1cc(O)ccc1O [Compound 89] | 72.6 ± 2.6 | 67.3 ± 0.552 | 83.6 ± 2 | 83.6 ± 2.0
 |  | 35.5 |  | O=C(/C=C(O)/C=C/c1cccc(O)c1)c1cc(O)ccc1O [Compound 90] | 85 ± 1.4 | > 100 | 90.9 ± 2.02 | 90.9 ± 2.0
75 ± 4.9 | 75 ± 4.9 | 74.1 |  | O=C(/C=C(O)/C=C/c1ccco1)c1cc(O)ccc1O [Compound 91] | 94.1 ± 0.9 | > 100 | 83.6 ± 2.84 | 83.6 ± 2.8
29.9 ± 0.444 | 29.9 ± 0.4 | 30.2 |  | O=C(/C=C(O)/C=C/c1ccccc1)c1ccc(O)cc1O [Compound 93] | 59.5 ± 0.5 | 59.46 ± 0.511 | 94.7 ± 2.28 | 94.7 ± 2.3
24.8 ± 0.4 | 24.8 ± 0.4 | 24.5 |  | O=C(/C=C(O)/C=C/c1cccc(O)c1)c1ccc(O)cc1O [Compound 94] | 70.1 ± 1.8 | 70.1 ± 1.8 | 95.4 ± 1.45 | 95.4 ± 1.5
44.8 ± 1.57 | 44.8 ± 1.6 | 44.7 |  | O=C(/C=C(O)/C=C/c1cccs1)c1ccc(O)cc1O [Compound 95] |  | > 100 | 60.4 ± 2.04 | 60.4 ± 2.0
